Assay results: US5387516A, “Heat stable debranching enzyme from a Bacillus microorganism” (priority 1992, dated 1995)
Where two headings read alike, the source gives them in different places.

How the values were obtained:
Type in all cases: biochemical
[1] = tested on: DB-250 (Amano Pharmaceutical Co., Ltd.), Enzyme B, debranching enzyme from Bacillus sectorramus
Protocol: (§1) To 0.5 ml of a 1% pullulan solution in a 100 mM McIlvaine's buffer solution (pH=5.0) was added 0.5 ml of an enzyme solution, and the system was allowed to react at 50° C. for 30 minutes. The reducing power thus produced was quantitatively determined through a 3,5-dinitrosalicylic acid reaction (the DNS method; cf. Borel et al., Helv. Chim. Acta., 35, 115 (1952)). The activity producing reducing power corresponding to 1 μmol of maltotriose for 1 minute was taken as one unit.

[2] = tested on: Promozyme (Novo Nordisk A/S), Enzyme A, debranching enzyme from Bacillus acidopullulyticus
Protocol: as §1

[3] = tested on: debranching enzyme (α-1,6-glucosidase) of the invention from Bacillus sp. APC-9603
Protocol: as §1

[4] = Table 5, conditions not restated
[5] = Table 5, inhibitor 1 mM, 50 mM acetic acid buffer pH 5.0, 40° C., 30 minutes
[6] = inhibitor at final concentration 1 mM, 50 mM acetic acid buffer pH 5.0, 40° C., 30 minutes, no inhibitor = 100

| SMILES | Influence of Inhibitor (residual activity), Enzyme B [1] | Influence of Inhibitor (residual activity), Enzyme A [2] | Influence of Inhibitor (residual activity), Enzyme of Invention ([3]; pH 5) | Inhibition (in words) ([3]; pH 5) | Residual Activity ([3]; pH 5) | Influence of Inhibitor (residual activity), Enzyme B [1, 4] | Influence of Inhibitor (residual activity), Enzyme A [2, 4] | Influence of Inhibitor (residual activity), Enzyme of Invention [3, 5] | Residual Activity [3, 6] | Inhibition (in words), Enzyme B [1] | Inhibition (in words), Enzyme A [2] | Inhibition (in words) ([3]; inhibitor 1 mM, pH 5.0, 40° C., 30 minutes) |
| --- | --- | --- | --- | --- | --- | --- | --- | --- | --- | --- | --- | --- |
| O=C(O)CI [MIA, monoiodoacetic acid] | 67% | 68% | 105% | Non-inhibited | 105% | – | – | – | – | – | – | – |
| O=C(O)CN(CCN(CC(=O)O)CC(=O)O)CC(=O)O [EDTA] | 93% | 129% | 90% | Slightly inhibited | 90% | – | – | – | – | – | – | – |
| CCN1C(=O)C=CC1=O [N-EMI, N-ethylmaleimide] | – | – | – | Non-inhibited | – | 66% | 69% | 104% | 104% | – | – | – |
| O=C(O)c1cc[c]([Hg][OH])cc1 [p-CMB, p-mercuri-benzoic acid] | – | – | – | – | – | 27% | 14% | 81% | 81% | inhibited by p-CMB to a large extent | inhibited by p-CMB to a large extent | Slightly inhibited |
